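In this assay, cells in 96-well plates receive the compound at five concentrations for 48 hours. Endpoints are linearly interpolated between the surrounding concentrations. TGI is the concentration that stops growth completely.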
Experiments:
Test in all cases: DTP human tumour cell line panel, 48 h
[1] = test system: OVCAR-8 ovarian
[2] = test system: OVCAR-4 ovarian
[3] = test system: MALME-3M melanoma
[4] = test system: UACC-257 melanoma
[5] = test system: LOX IMVI melanoma
[6] = test system: SK-MEL-5 melanoma
[7] = test system: NCI/ADR-RES ovarian
[8] = test system: A498 renal
[9] = test system: A549 NSCLC
[10] = test system: SNB-19 CNS
[11] = test system: DU-145 prostate
[12] = test system: ACHN renal
[13] = test system: HCC-2998 colon
[14] = test system: HCT-116 colon
[15] = test system: MCF7 breast
[16] = test system: HCT-15 colon
[17] = test system: K-562 leukemia
[18] = test system: SF-268 CNS
[19] = test system: BT-549 breast
[20] = test system: HOP-92 NSCLC
[21] = test system: RXF 393 renal
[22] = test system: IGROV1 ovarian
[23] = test system: MDA-MB-435
[24] = test system: RPMI-8226 leukemia
[25] = test system: SW-620 colon
[26] = test system: UO-31 renal
[27] = test system: NCI-H460 lung
[28] = test system: SF-539 CNS
[29] = test system: SN12C renal
[30] = test system: TK-10 renal
[31] = test system: SK-MEL-2 melanoma
[32] = test system: OVCAR-5 ovarian
[33] = test system: NCI-H522 lung
[34] = test system: T-47D breast
[35] = test system: NCI-H226 lung
[36] = test system: COLO 205 colon
[37] = test system: HS 578T breast
[38] = test system: SR leukemia
[39] = test system: MOLT-4 leukemia
[40] = test system: CCRF-CEM leukemia
[41] = test system: SNB-75 CNS
[42] = test system: SF-295 CNS
[43] = test system: HOP-62 NSCLC
[44] = test system: MDA-N
[45] = test system: HT29 colon
[46] = test system: MDA-MB-231 breast
[47] = test system: KM12 colon
[48] = test system: CAKI-1 renal
[49] = test system: 786-0 renal
[50] = test system: EKVX NSCLC
[51] = test system: UACC-62 melanoma
[52] = test system: SK-OV-3 ovarian
[53] = test system: U251 CNS
[54] = test system: SK-MEL-28 melanoma
[55] = test system: NCI-H23 lung
[56] = test system: OVCAR-3 ovarian
[57] = test system: PC-3 prostate

## CCOC(=O)/C=C/[C@H](O)[C@@H](O)/C=C/C(=O)OCC
[1]
  TGI: 44.8 µM
[2]
  TGI: > 100 µM
[3]
  TGI: 46.8 µM
[4]
  TGI: > 100 µM
[5]
  TGI: 74.2 µM
[6]
  TGI: > 100 µM
[7]
  TGI: > 100 µM
[8]
  TGI: > 100 µM
[9]
  TGI: > 100 µM
[10]
  TGI: 58.2 µM
[11]
  TGI: > 100 µM
[12]
  TGI: 60 µM
[13]
  TGI: > 100 µM
[14]
  TGI: 43 µM
[15]
  TGI: 79.7 µM
[16]
  TGI: 59.7 µM
[17]
  TGI: 27.7 µM
[18]
  TGI: > 100 µM
[19]
  TGI: > 100 µM
[20]
  TGI: 33.5 µM
[21]
  TGI: 79.4 µM
[22]
  TGI: > 100 µM
[23]
  TGI: > 100 µM
[24]
  TGI: 44.6 µM
[25]
  TGI: 40.6 µM
[26]
  TGI: > 100 µM
[27]
  TGI: 43 µM
[28]
  TGI: > 100 µM
[29]
  TGI: 85.2 µM
[30]
  TGI: > 100 µM
[31]
  TGI: > 100 µM
[32]
  TGI: > 100 µM
[33]
  TGI: 39.2 µM
[34]
  TGI: > 100 µM
[35]
  TGI: > 100 µM
[36]
  TGI: > 100 µM
[37]
  TGI: > 100 µM
[38]
  TGI: 40 µM
[39]
  TGI: 41.5 µM
[40]
  TGI: 32.6 µM
[41]
  TGI: > 100 µM
[42]
  TGI: > 100 µM
[43]
  TGI: 85 µM
[44]
  TGI: > 100 µM
[45]
  TGI: 36.9 µM
[46]
  TGI: > 100 µM
[47]
  TGI: 47.6 µM
[48]
  TGI: 45.8 µM
[49]
  TGI: > 100 µM
[50]
  TGI: 58.8 µM
[51]
  TGI: 57.4 µM
[52]
  TGI: > 100 µM
[53]
  TGI: > 100 µM
[54]
  TGI: 44.3 µM
[55]
  TGI: > 100 µM
[56]
  TGI: 64.7 µM
[57]
  TGI: > 100 µM

Reference: PubChem BioAssay (NCI)
